# Data published in patent US6180629A, “[4,5]-Fused-1,3-disubstituted-1,2-diazine-6-one derivatives with nitrogen containing substitutents in position one for the treatment of neoplasia” (Cell Pathways, Inc., priority 1998, dated 2001).
# Columns and labels:
# [1] = system: colonic polyps; settings: patients; cited from earlier work
# [2] = chronic administration, high cancer-risk patients; cited from earlier work
# [3] = system: SW-480 colon adenocarcinoma cells; test: Apoptosis (DNA fragmentation) in SW-480 colon adenocarcinoma cells, Cell Death Detection ELISA; type: cell-based, human; settings: for fold induction at 100 µM: SW480, read-out: DNA Fragmentation FS (Fold stimulation, FS=ODmax/ODveh); for fold induction at 100 µM / EC50: SW-480, 48 hrs; for Apoptosis Level (Mean OD Value ± SD): vehicle 0.175 ± 0.02
# Method: Apoptosis was measured using an assay of cell death based on a characteristic feature of apoptotic cells (i.e., fragmented DNA). Briefly, SW-480 colon adenocarcinoma cells were plated in 96-well microtitre plates ("MTP") at a density of 10K cells/well in 180 μl and were incubated for 24 hrs. Cells were then treated with 20 μl aliquots of appropriately diluted compound, and allowed to incubate for an additional 48 hrs.
# After the incubation, samples were prepared according to the following steps. The MTP was centrifuged (15 min., 1000 rpm) and the supernatant was carefully removed by fast inversion of the MTP. The cell pellets in each well were resuspended in 200 μl lysis buffer and incubated for 45 min. at room temperature to lyse the cells. The lysates were then centrifuged (15 min., 1000 rpm) and 20 μl aliquots of the supernatant (=cytoplasmicfraction) were transferred into the streptavidin coated MTP for analysis. Care was taken not to shake the lysed pellets in the MTP (=cell nucleii containing high molecular weight, unfragmented DNA). Samples were analyzed immediately, because storage at 4° C. or -20° C. reduces the ELISA-signals.
# Samples were then processed according to a DNA fragmentation assay protocol, and dose-response curves were generated based on optical density readings. Quantification of DNA was done by a commercially available photometric enzyme-immunoassay manufactured by Mannheim-Boehringer under the name "Cell Death Detection ELISA^plus ". The assay is based on a quantitative sandwich-enzyme-immunoassay-principle using mouse monoclonal antibodies directed against DNA and histones, respectively. This allows the specific determination of mono and oligonucleosomes in the cytoplasmatic fraction of cell lysates. In brief, the assay procedure is as follows. The sample (cell-lysate, serum, culture-supernatant etc.) is placed into a streptavidin-coated MTP. Subsequently, a mixture of anti-histone-biotin and anti-DNA-POD is followed by incubation for 2 hours. During the incubation period, the anti-histone antibody binds to the histone-component of the nucleosomes and simultaneously fixes the immunocomplex to the streptavidin-coated MTP via its biotinylation. Additionally, the anti-DNA-POD antibody reacts with the DNA component of the nucleosomes. After removal of unbound antibodies by a washing step, the amount of nucleosomes is quantified by the POD retained in the immunocomplex. POD is determined photometrically with ABTS® (2,2'-Azino-di[3-ethylbenzthiazolin-sulfonat]) as substrate.
# Fold stimulation (FS=ODmax/ODveh), an indicator of apoptotic response, was determined for each compound tested.
# [4] = system: human colon carcinoma cell line, SW-480; test: Growth inhibition of SW-480 human colon carcinoma cells, Sulforhodamine B (SRB) protein binding assay, six days; type: cell-based; settings: SW480, 144 h
# Method: The compounds of Examples 1-3 were assayed for their growth inhibitory activity on the human colon carcinoma cell line, SW-480 obtained from ATCC (Rockville, Md.), to ascertain the degree of growth inhibition. Growth inhibition of this cell line is indicative of a benefit on precancerous lesions and neoplasms. The cell line and growth assay employed for such experiments are well characterized, and are used to evaluate the anti-neoplastic properties of NSAIDs. The assay is used by the United States National Cancer Institute in its screening program for new anti-cancer drugs.
# Drug stock solutions were made in 100% DMSO and were then diluted with RPMI media for cell culture testing. All drug solutions were prepared fresh on the day of testing. The cultured cells were obtained at passage #99 and grown in RPMI media supplemented with 5% fetal calf serum, and 2 mM glutamine, 100 u/ml penicillin, 100 U/ml streptomycin, and 0.25 μg/ml amphotericin. The cultures were maintained in a humidified atmosphere of 95% air and 5% CO2 at 37° C. The cultures were passaged at preconfluent densities using a solution of 0.05% trypsin and 0.53 mM EDTA. Cells were plated at 1000 cells/well for 96 well flat-bottom microtiter plates.
# Tumor cell growth inhibition was assessed using the Sulforhodamine B (SRB) protein binding assay. In this assay, tumor cells were plated in 96-well plates and treated with drug-containing media for six days (continuous exposure). For each plate, 6 wells were designated as no treatment controls, six wells as vehicle (0.1% DMSO) controls, and the remaining wells for drug dilutions with three wells per drug concentration. At the end of the exposure period, the cells were fixed and stained with sulforhodamine B, a protein binding dye. The dye was then solubilized, and the optical density of the resulting solution was determined on a 96-well plate reader. The mean dye intensity of the treated wells was then divided by the mean dye intensity in the control wells (6 wells of each) to determine the effect of the drug on the cells. Dye intensity is proportional to the number of cells or amount of protein per well. The resultant "percent inhibition" value then represents the degree of growth inhibition caused by the drug.
# An IC50 value was also determined for the compound of Example 3. This value is equivalent to the concentration of drug needed to inhibit tumor cell growth by 50% relative to a vehicle control. IC50 value was obtained graphically by connecting the mean values for each drug concentration tested. Each experiment included at least three wells per drug concentration. Concentration was plotted on a log scale on the X-axis.
smiles,measurement,setting,value
CC1=C(CC(=O)O)c2cc(F)ccc2/C1=C\c1ccc([S+](C)[O-])cc1 (centres unmarked) [sulindac],effect on colonic polyps,[1],Polyps virtually disappear
same,gastric side effects,[2],causes gastric side effects in many such patients
"O=C(Cn1nc(-c2ccccc2)c2ccccc2c1=O)NCc1ccccc1 [Example 1, 2-(1-Oxo-4-Phenylphthalazin-2-yl)-N-Benzylethanamide]",fold induction at 100 µM,[3]; Homo sapiens,7.3
same,inhibition at 100 µM,[4]; six days continuous exposure,90%
"O=C(Cn1nc(-c2ccc(Cl)cc2)c2ccccc2c1=O)NCc1ccccc1 [Example 3, 2-[4-(4-Chlorophenyl)-1-Oxo-Phthalazin-2-yl]-N-Benzylethanamide]",Apoptosis Level (Mean OD Value ± SD),[3]; Dose 0.001 μM,0.156 ± 0.02 OD
same,Apoptosis Level (Mean OD Value ± SD),[3]; Dose 0.01 μM,0.165 ± 0.03 OD
same,Apoptosis Level (Mean OD Value ± SD),[3]; Dose 0.1 μM,0.161 ± 0.02 OD
same,Apoptosis Level (Mean OD Value ± SD),[3]; Dose 1.0 μM,0.208 ± 0.01 OD
same,Apoptosis Level (Mean OD Value ± SD),[3]; Dose 10.0 μM,1.789 ± 0.32 OD
same,Apoptosis Level (Mean OD Value ± SD),[3]; Dose 100.0 μM,2.763 ± 0.29 OD
same,EC50,"[3]; Homo sapiens, SW480, 48 h",7.2 µM
same,fold induction at 100 µM,[3]; Homo sapiens,6.1
same,EC50,[3],7.19 µM
same,inhibition at 100 µM,[4]; six days continuous exposure,86.1%
same,activity at 0.001 µM,"[4]; Dose 0.001 μM, read-out: Growth Inhibition (% Vehicle ± SD)",105 ± 20%
same,activity at 0.01 µM,"[4]; Dose 0.01 μM, read-out: Growth Inhibition (% Vehicle ± SD)",99 ± 11.9%
same,activity at 0.1 µM,"[4]; Dose 0.1 μM, read-out: Growth Inhibition (% Vehicle ± SD)",91 ± 5%
same,activity at 1 µM,"[4]; Dose 1.0 μM, read-out: Growth Inhibition (% Vehicle ± SD)",94 ± 17.9%
same,activity at 10 µM,"[4]; Dose 10.0 μM, read-out: Growth Inhibition (% Vehicle ± SD)",34 ± 17.8%
same,activity at 100 µM,"[4]; Dose 100.0 μM, read-out: Growth Inhibition (% Vehicle ± SD)",6 ± 1.6%
same,IC50,"[4]; six days continuous exposure, read-out: IC50 (tumor cell growth, relative to vehicle control)",5.18 µM
O=C(Cn1nc(-c2ccc(F)cc2)c2ccccc2c1=O)NCc1ccccc1 [Example 2],fold induction at 100 µM,[3]; Homo sapiens,1.2
same,inhibition at 100 µM,[4]; six days continuous exposure,-7.8%
